From patent US5480888A, “Inhibitor for restenosis after percutaneous coronary arterioplasty” (Daiichi Pharmaceutical Co., Ltd., priority 1992, dated 1996)

System: post PTCA vessels
Experiment: Clinical test: restenosis after elective PTCA in patients with angina pectoris (coronary angiography, video-densitometry)
Format: in vivo
Description: 29 patients suffering from angina pectoris who received elective PTCA (43 sites ) orally took 2-phenyl-1,2-benzoisoselenazol-3(2H )-one (hereinafterreferred to as compound A) after meal with a daily dose of 200 mg, twice a day, 100 mg for each time, starting from three days prior to the PTCA operation over 3 months after operation (treated group ). […] The stenosed degree was measured by video-densitometry (Reiber JHC et al., Circulation 1985; 71:280-288), and inhibition of restenosis was evaluated on the basis of the findings. […]
In both of the treated and control groups, calcium antagonists such as nifedipine and diltiazem, and antiarteriosclerotic agents such as elastase were concurrently administered as required. As a result, there was no significant difference according to the .chi.^2 test between the two groups with regard to the use of concomitant compounds and other patient characteristics including the age, the site of the lesion, etc.

O=c1c2ccccc2[se]n1-c1ccccc1 [compound A, 2-phenyl-1,2-benzoisoselenazol-3(2H)-one]
onset rate of restenosis based on the number of patients (6 months after operation, treated group, 29 patients, control 38.2%): 18.6%
inhibition of restenosis in the location of operation (compared to the control group, Table 2): remarkable inhibition of restenosis
Stenosed Degree Before PTCA (treated group, 43 sites, 100 mg twice a day orally from three days prior to PTCA, control 87 +/- 11): 89 +/- 10
Stenosed Degree 3 Months after PTCA (treated group, 43 sites, 100 mg twice a day orally, control 78 +/- 39, *P<0.05 vs Placebo, Chi square analysis): 54 +/- 31
Stenosed Degree After PTCA (treated group, 43 sites, immediately after PTCA, 100 mg twice a day orally, control 32 +/- 23): 35 +/- 28
